Measurements: PubChem BioAssay (NCI)
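Tested at 5 concentrations; 48 h exposure; 96-well plates; endpoints linearly interpolated, else capped at highest concentration. TGI is the concentration that stops growth completely.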

Columns and labels:
Experiment in all cases: NCI-60 cell line screen, 48 h
HOP-92 NSCLC = test system: HOP-92 NSCLC
SN12C renal = test system: SN12C renal
SNB-75 CNS = test system: SNB-75 CNS
SK-MEL-5 melanoma = test system: SK-MEL-5 melanoma
HL-60(TB) leukemia = test system: HL-60(TB) leukemia
HCC-2998 colon = test system: HCC-2998 colon
UACC-257 melanoma = test system: UACC-257 melanoma
SR leukemia = test system: SR leukemia
MDA-MB-435 = test system: MDA-MB-435
MDA-N = test system: MDA-N

Structure (SMILES)	TGI (HOP-92 NSCLC) [µM]	TGI (SN12C renal) [µM]	TGI (SNB-75 CNS) [µM]	TGI (SK-MEL-5 melanoma) [µM]	TGI (HL-60(TB) leukemia) [µM]	TGI (HCC-2998 colon) [µM]	TGI (UACC-257 melanoma) [µM]	TGI (SR leukemia) [µM]	TGI (MDA-MB-435) [µM]	TGI (MDA-N) [µM]
Cc1nn2c(=O)c([N+](=O)[O-])c(/C=C/c3ccccc3)nc2s1	> 100	> 100	20.3	11.2	5.61	43.1	> 100	6.52	5.06	6.72
COc1ccc(OC)c2sc(N3C(=O)/C(=C/Cc4ccco4)N=C3c3ccccc3)nc12	> 100	80	57.8	80.5	37.9	> 100	> 100	43.9	60.8	48.3
C=C(c1ccccc1)C1ON(C)CCc2cc(OC)c(OC)cc21 (configuration not stated)	> 100	> 100	> 100	66	> 100	> 100	> 100	> 100	> 100	> 100
NCCCCNCCCN1CC1	7.47	–	1.92	9.67	5.32	97.1	> 100	52.9	> 94.6	> 100
c1csc(-c2cscc2-c2ccsc2)c1	> 100	> 100	> 100	> 100	> 93.8	> 89.6	> 100	> 95.9	> 68	> 63.3
COc1cc(S(=O)(=O)Nc2ccc(-c3csc(N4C(=O)CSC4c4cccs4)n3)cc2)ccc1Cl (configuration not stated)	> 100	73.7	40.3	> 100	41.5	30.7	46	> 100	> 100	98.2
COc1ccc(C2c3cc4c(cc3C(O)C3CCC(=O)N23)OCO4)cc1 (configuration not stated)	> 100	> 100	> 100	> 100	> 100	> 100	> 100	> 100	> 100	> 100
CCOC(=O)/C(C)=C\[C@@]1(C)O[C@@H](C)[C@@](C)(OC(C)=O)[C@@H]1OC(C)=O	> 100	> 100	–	> 100	> 100	> 100	> 100	> 100	> 100	> 100
CCCCCC(=O)Nc1n[nH]nc1C(N)=O	> 100	> 100	> 100	> 100	> 100	> 100	> 100	> 100	> 100	> 100
CCOC(=O)/C(O)=C(/C=N\C(=S)Nc1ccccc1Cl)C(=O)OCC	90.9	> 100	> 100	> 100	> 100	> 100	> 100	> 100	> 100	> 100
Fc1cc(C2=C[C@H](c3ccc(Cl)cc3)NC(=S)N2)c(Cl)cc1Cl	> 100	79.6	> 100	36.1	65.7	79.8	> 100	> 100	> 100	> 100
CCOC(=O)c1ccc(C(=O)OCC)n1-c1cc2cc(c1)CSCc1cc(cc(-n3c(C(=O)OCC)ccc3C(=O)OCC)c1)CSC2	> 10	> 10	> 10	> 10	> 10	> 10	> 10	> 10	> 10	> 10
COc1ccc(/C=C2/C(C)=NN(c3cccc(Cl)c3)/C2=N/c2nc3ccccc3s2)cc1	47.7	–	86.6	33.7	51.4	33.2	55.7	62.6	> 100	41.6
CC1=NC(=O)C(C)(c2ccccc2)N1CCc1ccccc1 (configuration not stated)	> 100	> 100	> 100	> 100	> 100	> 100	> 100	> 100	> 100	> 100
O=C1CSC2(CC(/C=C/c3ccccc3O)=NN2c2cccc(S(=O)(=O)O)c2)N1c1nc2ccccc2s1 (configuration not stated)	> 100	78.7	> 100	> 100	49	52.6	> 100	49.5	55.7	> 100
O=C(O)C1CC2C3CCC2C1C3=O (configuration not stated)	> 100	> 100	> 100	> 100	> 100	> 100	> 100	> 100	> 100	> 100
